Measurements reported in publication PMC12114598, “Repositioning FDA-Approved Sulfonamide-Based Drugs as Potential Carbonic Anhydrase Inhibitors in Trypanosoma cruzi: Virtual Screening and In Vitro Studies” (Pharmaceuticals, 2025).

How the values were obtained:
T. cruzi epimastigotes = system: T. cruzi epimastigotes; design: method as in PMID 32560043; conditions: in vitro epimastigote model; cited from earlier work
[1] = system: T. cruzi amastigotes, NINOA strain; experiment: Amastigote assay, NINOA strain; format: cell-based; conditions: Trypanosoma cruzi; in J774.2 macrophages, 48 h, MTT; ± SD; read-out: Amastigote (Ex Vivo) NINOA IC50
Method: (§1) Amastigote susceptibility to reference drugs was evaluated in vitro. […] The lysis solution was then replaced with Schneider’s medium followed by incubation at 28 °C for another 4 to 5 days to allow the transformation of viable amastigotes and their subsequent proliferation. Then, MTT colorimetric assays were performed. Finally, the half maximal inhibitory concentration (IC50) was determined by probit analysis. All studies were approved by the Institutional Committee for Handling and Animal Care of the Facultad de Ciencias Quimicas de la Universidad Autonoma “Benito Juarez” de Oaxaca (Register FCQ-CIP-0209243, Approved 23 September 2024) and were carried out according to Mexican guidance (NOM-062-ZOO-1999).

in vitro = format: cell-based; conditions: mouse
Method: Cytotoxicity assays were performed using the methodology proposed by Domínguez-Diaz et al. on a mouse macrophage cell line (J774.2). Cells were cultured in LIT medium supplemented with 10% SFB, penicillin (100 U μg/mL), and streptomycin (100 U μg/mL) at 37 °C in a 5% CO2 atmosphere. The culture medium was replaced at 2–3 day intervals. To evaluate the cytotoxicity of the compounds, 50,000 cells/well were plated in a 96-well plate and allowed to adhere for 24 h at 37 °C. Subsequently, the compounds were added at concentrations of 0.8 to 100 μg/mL to obtain a final volume of 200 μL and incubated for […] with 5% CO2. DMSO 0.1% (maximum concentration used) was included as a negative control and the control drugs as positive ones. The metabolic activity of the cell was determined following the MTT method, the % cell viability was calculated, and the median lethal concentration (LC50) was determined by Probit analysis. Analyses were performed in triplicate, and the Selectivity Index (SI) for the three parasitic stages in the NINOA and A1 strains (CC50/IC50) was calculated.

[2] = system: T. cruzi blood trypomastigotes, A1 strain; experiment: Trypanocidal activity, blood trypomastigotes ex vivo, A1 strain; format: cell-based; conditions: Trypanosoma cruzi; 24 h at 4 °C; ± SD; read-out: Trypomastigote (Ex Vivo) A1 IC50
Method: (§2) Ex vivo evaluation of the trypanocidal activity of the tested compounds was conducted according to previously established protocols. Blood was collected via intracardiac puncture from mice infected with T. cruzi NINOA and A1 strains and diluted in phosphate-buffered saline (PBS, pH 7.2) to achieve a final concentration of 2 × 10^6 blood trypomastigotes/mL. […] The plates were incubated at 4 °C for 24 h. […] Following incubation, live parasites were quantified using a Neubauer chamber, and the half-maximal inhibitory concentration (IC50) was determined by probit analysis. All assays were performed in three independent experiments, each conducted in triplicate.

[3] = system: T. cruzi epimastigotes, A1 strain; experiment: Trypanocidal activity, epimastigotes in vitro, A1 strain; format: cell-based; conditions: Trypanosoma cruzi; 48 h, resazurin; ± SD; read-out: Epimastigote (In Vitro) A1 IC50
Description: (§3) The selected drugs were purchased from Sigma-Aldrich without further purification. For the in vitro evaluation, the methodology proposed by Domínguez-Diaz et al. 2021 [53] against epimastigotes of T. cruzi strains NINOA (MHOM/MX/1994/NINOA) and A1 for the evaluation of candidate compounds was used. Both strains were maintained in liver-infusion tryptose (LIT) medium supplemented with 10% fetal bovine serum (FBS) and 0.1% penicillin–streptomycin. These strains were maintained by transferring 1 × 10^6 parasites/mL to fresh medium once a week. […] All compounds were initially prepared at a concentration of 10 mg/mL using dimethyl sulfoxide (DMSO) as a diluent. Serial dilutions were then performed with LIT medium until concentrations of 100 to 0.46 μg/mL of each compound were obtained. Amounts of 1 × 10^6 T. cruzi epimastigotes were grown in each well and incubated for 48 h at 28 °C in a final volume of 200 μL. DMSO was included as a negative control, and reference drugs as positive controls. At the end of the incubation period, 20 μL of resazurin solution (2.5 mM) was added to each well and incubated for 3 h. All assays were performed in triplicate, and the IC50 value was determined by probit analysis.

hCA II = target: T1, hCA II (Homo sapiens, UniProt P00918); experiment: CO2 hydrase stopped-flow assay, hCA II; format: biochemical; conditions: mean of three assays, errors ±5–10%
T1 construct: made in house
Method: (§4) An Applied Photophysics stopped-flow instrument was used for assaying the CA-catalysed CO2 hydration activity. […] The uncatalyzed rates were determined in the same manner and subtracted from the total observed rates. Stock solutions of inhibitor (0.1 mM) were prepared in distilled/deionized water, and dilutions up to 0.01 nM were performed thereafter with the assay buffer. Inhibitor and enzyme solutions were preincubated together for 15 min at room temperature before assaying to allow for the formation of the E–I complex. The inhibition constants were obtained by nonlinear least-squares methods using PRISM 3 and the Cheng–Prusoff equation and represent the mean from at least three different determinations. […] All hCA isoforms were recombinant ones obtained in-house, as reported earlier.

[4] = system: T. cruzi amastigotes, A1 strain; experiment: Amastigote assay, A1 strain; format: cell-based; conditions: Trypanosoma cruzi; in J774.2 macrophages, 48 h, MTT; ± SD; read-out: Amastigote (Ex Vivo) A1 IC50
Method: as §1

[5] = system: T. cruzi epimastigotes, NINOA strain; experiment: Trypanocidal activity, epimastigotes in vitro, NINOA strain; format: cell-based; conditions: Trypanosoma cruzi; 48 h, resazurin; ± SD; read-out: Epimastigote (In Vitro) NINOA IC50
Description: as §3

hCA I = target: T2, hCA I (Homo sapiens, UniProt P00915); experiment: CO2 hydrase stopped-flow assay, hCA I; format: biochemical; conditions: mean of three assays, errors ±5–10%
T2 construct: made in house
Method: as §4

α-TcCA = α-TcCA (Trypanosoma cruzi, UniProt Q4CVY4); experiment: CO2 hydrase stopped-flow assay, α-TcCA
Method: An Applied Photophysics stopped-flow instrument was used for assaying the CA-catalysed CO2 hydration activity [31]. […] The uncatalyzed rates were determined in the same manner and subtracted from the total observed rates. Stock solutions of inhibitor (0.1 mM) were prepared in distilled/deionized water, and dilutions up to 0.01 nM were performed thereafter with the assay buffer. Inhibitor and enzyme solutions were preincubated together for 15 min at room temperature before assaying to allow for the formation of the E–I complex. The inhibition constants were obtained by nonlinear least-squares methods using PRISM 3 and the Cheng–Prusoff equation and represent the mean from at least three different determinations.

[6] = system: T. cruzi blood trypomastigotes, NINOA strain; experiment: Trypanocidal activity, blood trypomastigotes ex vivo, NINOA strain; format: cell-based; conditions: Trypanosoma cruzi; 24 h at 4 °C; ± SD; read-out: Trypomastigote (Ex Vivo) NINOA IC50
Method: as §2

Chain of α-TcCA (Q4CVY4 entry or part of it): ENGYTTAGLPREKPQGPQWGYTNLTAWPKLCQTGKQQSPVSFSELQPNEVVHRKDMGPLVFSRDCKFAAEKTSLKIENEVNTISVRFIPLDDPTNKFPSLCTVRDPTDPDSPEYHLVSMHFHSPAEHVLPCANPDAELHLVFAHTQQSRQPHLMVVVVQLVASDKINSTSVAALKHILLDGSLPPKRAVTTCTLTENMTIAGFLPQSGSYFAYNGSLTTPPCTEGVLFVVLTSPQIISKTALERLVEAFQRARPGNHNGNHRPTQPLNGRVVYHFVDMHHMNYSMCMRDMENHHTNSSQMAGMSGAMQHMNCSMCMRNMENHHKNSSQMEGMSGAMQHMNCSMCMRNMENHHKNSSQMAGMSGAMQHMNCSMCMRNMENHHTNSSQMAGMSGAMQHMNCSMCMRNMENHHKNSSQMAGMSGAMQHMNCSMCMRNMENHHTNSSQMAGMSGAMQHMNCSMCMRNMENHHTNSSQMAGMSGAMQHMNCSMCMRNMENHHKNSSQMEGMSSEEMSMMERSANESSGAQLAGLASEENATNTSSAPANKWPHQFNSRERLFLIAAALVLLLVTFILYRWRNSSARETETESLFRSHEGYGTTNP
T2 sequence (P00915 whole entry): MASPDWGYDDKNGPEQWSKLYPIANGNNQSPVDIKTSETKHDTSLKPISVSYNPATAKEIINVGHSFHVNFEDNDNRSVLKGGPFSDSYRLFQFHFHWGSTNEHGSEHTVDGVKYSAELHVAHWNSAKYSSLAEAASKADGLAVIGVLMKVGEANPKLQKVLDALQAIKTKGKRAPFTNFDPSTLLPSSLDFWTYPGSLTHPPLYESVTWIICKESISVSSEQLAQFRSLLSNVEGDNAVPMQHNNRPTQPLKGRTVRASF

Row | Structure (SMILES) | IC50 (T. cruzi epimastigotes) [µM] | IC50 [1] [µM] | CC50 at 48 h (in vitro) [µM] | IC50 [2] [µM] | IC50 [3] [µM] | Ki (hCA II) [µM] | IC50 [4] [µM] | IC50 [5] [µM] | Ki (hCA I) [µM] | Ki (α-TcCA) [µM] | IC50 [6] [µM] | KI TcCA (α-TcCA; mean of three assays, errors ±5–10%)
1 | Cc1cnc(C(=O)NCCc2ccc(S(=O)(=O)NC(=O)NC3CCCCC3)cc2)cn1 [glipizide] | 13.4 ± 6 |  |  |  |  |  |  |  |  |  |  | 
2 | CC(=O)c1ccc(S(=O)(=O)NC(=O)NC2CCCCC2)cc1 [Ace, acetohexamide] |  | 46 ± 0.6 | > 200 | > 200 | 52.9 ± 2.7 | 2.9 | > 200 | 6.5 ± 2.1 | 17.3 | 5.6 | 46.5 ± 0.1 | 
3 | CCC1=C(C)CN(C(=O)NCCc2ccc(S(=O)(=O)NC(=O)N[C@H]3CC[C@H](C)CC3)cc2)C1=O [Glim, glimepiride] |  | > 200 | 14.2 ± 2.3 | > 200 | 37.6 ± 1.5 | 19.9 | 50.26 ± 0.01 | 70.2 ± 3.2 | > 100 | 35.7 | > 200 | 
4 | Cc1ccc(S(=O)(=O)NC(=O)NN2CC3CCCC3C2)cc1 (stereo not shown) [Glic, gliclazide] |  | > 200 | > 200 | > 200 | 10.7 ± 1.5 |  | 12.3 ± 0.01 | > 200 | > 100 | > 100 | 89.4 ± 0.1 | 
5 | CC(=O)Nc1nnc(S(N)(=O)=O)s1 [Aaz, acetazolamide] |  |  | 12.6 ± 4.7 |  |  |  |  |  |  |  |  | 
6 | CC1CS(=O)(=O)CCN1/N=C/c1ccc([N+](=O)[O-])o1 (stereo not shown) [Nfx, Nifurtimox] |  | 70.5 ± 0.6 |  | 118.2 ± 0.02 | 39.1 ± 0.07 |  | 54.8 ± 0.01 | 7.1 ± 0.1 |  |  | 156 ± 0.1 | 
7 | CCCCNC(=O)NS(=O)(=O)c1ccc(C)cc1 [Tol, tolbutamide] |  | 148.7 ± 0.01 | > 200 | 97.7 ± 0.1 | > 200 | > 100 | 44.5 ± 0.01 | 8.5 ± 1.4 | > 100 | > 100 | 9.8 ± 0.1 | did not exhibit inhibitory activity
8 | O=C(Cn1ccnc1[N+](=O)[O-])NCc1ccccc1 [Bzn, Benznidazole] |  |  |  | 145.3 ± 0.2 | 19.3 ± 0.08 |  |  | 30.3 ± 0.03 |  |  | 167.1 ± 0.03 | 
